Test results: patent publication US8324198B1, “Monocarbams” (Pfizer Inc., priority 2008, dated 2012)
Values after ≈ are worked out from the molar mass of the structure shown. Structures can show the parent of a compound that is named as a salt.

Columns and labels:
P. aeruginosa 1091-05 [1] = experiment: In vitro MIC, P. aeruginosa 1091-05; type: cell-based; settings: for MIC: Pseudomonas aeruginosa, 109105, read-out: Pa 1091-05 MIC
P. aeruginosa 1091-05 [2] = experiment: Murine respiratory tract infection model against P. aeruginosa 1091-05 (PD50); type: in vivo; settings: for RTI PD50 vs. Pa 1091-05 (95% confidence interval): immunosuppressed C3H/HeN mice, intranasal challenge, subcutaneous BID for two days from 4 h post-challenge, lethality over ten days; for Efficacy relative to Comparative Example A (PD50, 95% confidence intervals): murine respiratory tract infection model, P. aeruginosa 1091-05
Description: For this model, C3H/HeN mice were immunosuppressed with cyclophosphamide given orally at 150 mg/kg and 100 mg/kg on days −4 and −1 relative to challenge, respectively. Mice were anesthetized with isoflurane (5% in oxygen) and the bacterial inoculum was given to each mouse via intranasal instillation in a 40 μL volume (˜2.8×10^3 cfu per mouse). Mice were dosed with compound administered via subcutaneous injection beginning at four hours post-challenge, and continuing for two days of BID therapy.
PD50 is a measure of the ability of a compound to protect mice from a lethal infection.

[3] = test system: Klebsiella pneumoniae 1000-02; experiment: In vitro MIC, Klebsiella pneumoniae 1000-02; type: cell-based; settings: strain 1000-02, resistant to cephalosporins
Text: (§1) Culture collection strain 1045-06 is resistant to several classes of known antimicrobial agents including carbapenems, aminoglycosides and fluoroquinolones, while strains 1000-02 and 3167 are resistant to cephalosporins. Strain PA0200 is a derivative of laboratory strain PAO1 that lacks a functional MexAB-oprM efflux pump.

[4] = test system: Acinetobacter baumanii 3167; experiment: In vitro MIC, Acinetobacter baumanii 3167; type: cell-based; settings: strain 3167, resistant to cephalosporins
Text: as §1

[5] = test system: Pseudomonas aeruginosa 1045-06; experiment: In vitro MIC, Pseudomonas aeruginosa 1045-06; type: cell-based; settings: strain 1045-06, resistant to carbapenems, aminoglycosides and fluoroquinolones
Text: as §1

[6] = test system: Pseudomonas aeruginosa PA0200 MexAB-oprM KO; experiment: In vitro MIC, Pseudomonas aeruginosa PA0200 MexAB-oprM KO; type: cell-based; settings: PAO1, read-out: MIC Pseudomonas aeruginosa PA0200 MexAB-oprM KO
Text: as §1

Compound	Pa 1091-05 MIC (P. aeruginosa 1091-05 [1])	RTI PD50 vs. Pa 1091-05 (95% confidence interval) (P. aeruginosa 1091-05 [2]; disodium salt)	Efficacy relative to Comparative Example A (PD50, 95% confidence intervals) (P. aeruginosa 1091-05 [2])	MIC Klebsiella pneumoniae 1000-02 [3]	MIC Acinetobacter baumanii 3167 [4]	MIC Pseudomonas aeruginosa 1045-06 [5]	MIC [6]	MIC (P. aeruginosa 1091-05 [1])	RTI PD50 vs. Pa 1091-05 (95% confidence interval) (P. aeruginosa 1091-05 [2])
C[C@H](O)Cn1c(-c2cc(=O)c(O)c[nH]2)nn(S(=O)(=O)NC(=O)N2C[C@H](NC(=O)/C(=N\OC(C)(C)C(=O)[O-])c3csc(N)n3)C2=O)c1=O.C[C@H](O)Cn1c(-c2cc(=O)c(O)c[nH]2)nn(S(=O)(=O)NC(=O)N2C[C@H](NC(=O)/C(=N\OC(C)(C)C(=O)[O-])c3csc(N)n3)C2=O)c1=O.[Na+].[Na+] [Example 7, 2-({[(1Z)-1-(2-amino-1,3-thiazol-4-yl)-2-({(3S)-1-[({3-(5-hydroxy-4-oxo-1,4-dihydropyridin-2-yl)-4-[(2S)-2-hydroxypropyl]-5-oxo-4,5-dihydro-1H-1,2,4-triazol-1-yl}sulfonyl)carbamoyl]-2-oxoazetidin-3-yl}amino)-2-oxoethylidene]amino}oxy)-2-methylpropanoic acid, disodium salt]	125 µg/mL	15.7 (8.45-22.96) mg/kg	significantly more efficacious relative to Comparative Example A	250 µg/mL	1000 µg/mL	250 µg/mL	–	–	–
CC(C)(O/N=C(\C(=O)N[C@H]1CN(C(=O)NS(=O)(=O)n2nc(-c3cc(=O)c(O)c[nH]3)n(C[C@H](O)CO)c2=O)C1=O)c1csc(N)n1)C(=O)[O-].CC(C)(O/N=C(\C(=O)N[C@H]1CN(C(=O)NS(=O)(=O)n2nc(-c3cc(=O)c(O)c[nH]3)n(C[C@H](O)CO)c2=O)C1=O)c1csc(N)n1)C(=O)[O-].[Na+].[Na+] [Example 5, 2-({[(1Z)-1-(2-amino-1,3-thiazol-4-yl)-2-({(3S)-1-[({4-[(2S)-2,3-dihydroxypropyl]-3-(5-hydroxy-4-oxo-1,4-dihydropyridin-2-yl)-5-oxo-4,5-dihydro-1H-1,2,4-triazol-1-yl}sulfonyl)carbamoyl]-2-oxoazetidin-3-yl}amino)-2-oxoethylidene]amino}oxy)-2-methylpropanoic acid, disodium salt]	125 µg/mL	18.6 (8.94-28.29) mg/kg	significantly more efficacious relative to Comparative Example A	500 µg/mL	500 µg/mL	250 µg/mL	–	–	–
2-({[(1Z)-2-{[(3S)-1-({[4-(2-amino-2-oxoethyl)-3-(5-hydroxy-4-oxo-1,4-dihydropyridin-2-yl)-5-oxo-4,5-dihydro-1H-1,2,4-triazol-1-yl]sulfonyl}carbamoyl)-2-oxoazetidin-3-yl]amino}-1-(2-amino-1,3-thiazol-4-yl)-2-oxoethylidene]amino}oxy)-2-methylpropanoic acid, disodium salt [Example 4]	125 µg/mL	25.0 (24.8-25.2) mg/kg	significantly more efficacious relative to Comparative Example A	1000 µg/mL	1000 µg/mL	500 µg/mL	–	–	–
CCCn1c(-c2cc(=O)c(O)c[nH]2)nn(S(=O)(=O)NC(=O)N2C[C@H](NC(=O)/C(=N\OC(C)(C)C(=O)O)c3csc(N)n3)C2=O)c1=O [Example 9, 2-({[(1Z)-1-(2-amino-1,3-thiazol-4-yl)-2-{[(3S)-1-({[3-(5-hydroxy-4-oxo-1,4-dihydropyridin-2-yl)-5-oxo-4-propyl-4,5-dihydro-1H-1,2,4-triazol-1-yl]sulfonyl}carbamoyl)-2-oxoazetidin-3-yl]amino}-2-oxoethylidene]amino}oxy)-2-methylpropanoic acid]	–	–	–	–	–	–	< 62.5 µg/mL	–	–
CN(C)CCn1c(-c2cc(=O)c(O)c[nH]2)nn(S(=O)(=O)NC(=O)N2C[C@H](NC(=O)/C(=N\OC(C)(C)C(=O)O)c3csc(N)n3)C2=O)c1=O [Example 2, 2-({[(1Z)-1-(2-amino-1,3-thiazol-4-yl)-2-({(3S)-1-[({4-[2-(dimethylamino)ethyl]-3-(5-hydroxy-4-oxo-1,4-dihydropyridin-2-yl)-5-oxo-4,5-dihydro-1H-1,2,4-triazol-1-yl}sulfonyl)carbamoyl]-2-oxoazetidin-3-yl}amino)-2-oxoethylidene]amino}oxy)-2-methylpropanoic acid]	–	–	–	–	–	–	188 µg/mL (≈ 264 µM)	–	–
CCn1c(-c2cc(=O)c(O)c[nH]2)nn(S(=O)(=O)NC(=O)N2C[C@H](NC(=O)C(=NOC(C)(C)C(=O)O)c3csc(N)n3)C2=O)c1=O (stereo in doubt) [Example 1, 2-({[(1E)-1-(2-amino-1,3-thiazol-4-yl)-2-{[(3S)-1-({[4-ethyl-3-(5-hydroxy-4-oxo-1,4-dihydropyridin-2-yl)-5-oxo-4,5-dihydro-1H-1,2,4-triazol-1-yl]sulfonyl}carbamoyl)-2-oxoazetidin-3-yl]amino}-2-oxoethylidene]amino}oxy)-2-methylpropanoic acid]	–	–	–	–	–	–	< 62.5 µg/mL	–	–
C[C@@H](O)[C@H]1C(=O)N2C(C(=O)O)=C(SCCN=CN)C[C@H]12 [Imipenem, reference compound]	–	–	–	–	–	–	–	500 µg/mL (≈ 1670 µM)	1.04 mg/kg
C[C@@H](O)Cn1c(-c2cc(=O)c(O)c[nH]2)nn(S(=O)(=O)NC(=O)N2C[C@H](NC(=O)/C(=N\OC(C)(C)C(=O)[O-])c3csc(N)n3)C2=O)c1=O.C[C@@H](O)Cn1c(-c2cc(=O)c(O)c[nH]2)nn(S(=O)(=O)NC(=O)N2C[C@H](NC(=O)/C(=N\OC(C)(C)C(=O)[O-])c3csc(N)n3)C2=O)c1=O.[Na+].[Na+] [Example 6]	125 µg/mL	32.7 (23.7-42.0) mg/kg	significantly more efficacious relative to Comparative Example A	500 µg/mL	1000 µg/mL	250 µg/mL	–	–	–
CC(C)(O/N=C(\C(=O)N[C@H]1CN(C(=O)NS(=O)(=O)n2nc(-c3cc(=O)c(O)c[nH]3)n(CCN3CCCC3)c2=O)C1=O)c1csc(N)n1)C(=O)O [Example 11, 2-({[(1Z)-1-(2-amino-1,3-thiazol-4-yl)-2-{[(3S)-1-({[3-(5-hydroxy-4-oxo-1,4-dihydropyridin-2-yl)-5-oxo-4-(2-pyrrolidin-1-ylethyl)-4,5-dihydro-1H-1,2,4-triazol-1-yl]sulfonyl}carbamoyl)-2-oxoazetidin-3-yl]amino}-2-oxoethylidene]amino}oxy)-2-methylpropanoic acid]	–	–	–	–	–	–	16000 µg/mL (≈ 21700 µM)	–	–
COCCn1c(-c2cc(=O)c(O)c[nH]2)nn(S(=O)(=O)NC(=O)N2C[C@H](NC(=O)/C(=N\OC(C)(C)C(=O)O)c3csc(N)n3)C2=O)c1=O [Example 15, 2-({[(1Z)-1-(2-amino-1,3-thiazol-4-yl)-2-{[(3S)-1-({[3-(5-hydroxy-4-oxo-1,4-dihydropyridin-2-yl)-4-(2-methoxyethyl)-5-oxo-4,5-dihydro-1H-1,2,4-triazol-1-yl]sulfonyl}carbamoyl)-2-oxoazetidin-3-yl]amino}-2-oxoethylidene]amino}oxy)-2-methylpropanoic acid, disodium salt]	–	–	–	–	–	–	–	500 µg/mL	>70.8 mg/kg
CC(C)(O/N=C(\C(=O)N[C@H]1CN(C(=O)NS(=O)(=O)n2nc(-c3cc(=O)c(O)c[nH]3)n(C[C@@H](O)CO)c2=O)C1=O)c1csc(N)n1)C(=O)[O-].CC(C)(O/N=C(\C(=O)N[C@H]1CN(C(=O)NS(=O)(=O)n2nc(-c3cc(=O)c(O)c[nH]3)n(C[C@@H](O)CO)c2=O)C1=O)c1csc(N)n1)C(=O)[O-].[Na+].[Na+] [Example 3, 2-({[(1Z)-1-(2-amino-1,3-thiazol-4-yl)-2-({(3S)-1-[({4-[(2R)-2,3-dihydroxypropyl]-3-(5-hydroxy-4-oxo-1,4-dihydropyridin-2-yl)-5-oxo-4,5-dihydro-1H-1,2,4-triazol-1-yl}sulfonyl)carbamoyl]-2-oxoazetidin-3-yl}amino)-2-oxoethylidene]amino}oxy)-2-methylpropanoic acid, disodium salt]	125 µg/mL	20.6 (8.7-32.52) mg/kg	significantly more efficacious relative to Comparative Example A	500 µg/mL	500 µg/mL	500 µg/mL	–	–	–
CC(C)(O/N=C(\C(=O)N[C@H]1CN(C(=O)NS(=O)(=O)n2nc(-c3cc(=O)c(O)c[nH]3)n(CC(O)CO)c2=O)C1=O)c1csc(N)n1)C(=O)O (stereo partly drawn) [Example 10, 2-({[(1Z)-1-(2-amino-1,3-thiazol-4-yl)-2-{[(3S)-1-({[4-(2,3-dihydroxypropyl)-3-(5-hydroxy-4-oxo-1,4-dihydropyridin-2-yl)-5-oxo-4,5-dihydro-1H-1,2,4-triazol-1-yl]sulfonyl}carbamoyl)-2-oxoazetidin-3-yl]amino}-2-oxoethylidene]amino}oxy)-2-methylpropanoic acid]	–	–	–	–	–	–	250 µg/mL (≈ 350 µM)	–	–
CO/N=C(\C(=O)N[C@@H]1C(=O)N2C(C(=O)[O-])=C(C[N+]3(C)CCCC3)CS[C@H]12)c1csc(N)n1 [Cefepime, reference compound]	–	–	–	–	–	–	–	2000 µg/mL (≈ 4160 µM)	22 mg/kg
